Data: paper PMC5011342, “A high throughput drug screening assay to identify compounds that promote oligodendrocyte differentiation using acutely dissociated and purified oligodendrocyte precursor cells” (BMC Research Notes, 2016)
Read-outs that look alike come from different tables or passages of the source.

Legend:
[1] = system: acutely dissociated and purified rat OPCs; assay: Acute OL differentiation assay (MBP expression/cell, immunofluorescent image quantification); format: cell-based; settings: sheet "All OLga data"; for activation at 2 µM / activation at 10 µM / activation at 0.4 µM / activation at 0.08 µM: Rattus norvegicus
Summary of the method: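 Oligodendrocyte precursor cells were enriched from P6-P7 Sprague–Dawley rat brains by immunopanning (RAN-2 and GalC depletion, O4 selection), plated at 5000 cells/well in serum-free, mitogen-free differentiation media on PDL/laminin 96-well view plates, centrifuged at 200×g, and pre-incubated 1–2 h before test compounds were added in quadruplicate. On DIV4, cells were fixed, stained for MBP and DAPI, imaged automatically, and MBP expression per cell was quantified.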

expanded OPCs = assay: cells; settings: for viability at 0.1 µM / viability at 1 µM / viability at 10 µM: Rattus norvegicus, 72 h
Summary of the method: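 Expanded OPCs seeded at 10,000 cells/well in differentiation media, then exposed to NCC library compounds at 10, 1 and 0.1 µM (quadruplicate, 0.1% DMSO) for three days. Viability read as alamarBlue fluorescence (560/590 nm) after 4 h at 37 °C; tunicamycin 5 ng/ml served as toxicity control.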

[2] = test compound at 2 uM, NCC library screen, relative to quetiapine, read-out: 2 uM (% Quet)
[3] = test compound at 10 uM, NCC library screen, relative to quetiapine, read-out: 10 uM (% Quet)
[4] = alamarBlue viability of expanded OPCs, compound at 0.1 µM, relative to DMSO control
[5] = alamarBlue viability of expanded OPCs, compound at 1 µM, relative to DMSO control
[6] = alamarBlue viability of expanded OPCs, compound at 10 µM, relative to DMSO control
[7] = read-out: 0.1 µM (% DMSO), alamarBlue viability, NCC library compound at 0.1 µM, sheet "All Tox data"
[8] = read-out: 1 µM (% DMSO), alamarBlue viability, NCC library compound at 1 µM, sheet "All Tox data"
[9] = read-out: 10 µM (% DMSO), alamarBlue viability, NCC library compound at 10 µM, sheet "All Tox data"
[10] = 2 uM test compound, relative to quetiapine, read-out: OL differentiation, 2 uM (% Quet)
[11] = 10 uM test compound, relative to quetiapine, read-out: OL differentiation, 10 uM (% Quet)
[12] = read-out: 0.1 µM (% DMSO), alamarBlue viability of expanded OPCs, compound at 0.1 µM, sheet All Tox data
[13] = read-out: 1 µM (% DMSO), alamarBlue viability of expanded OPCs, compound at 1 µM, sheet All Tox data
[14] = read-out: 10 µM (% DMSO), alamarBlue viability of expanded OPCs, compound at 10 µM, sheet All Tox data
[15] = 0.4 uM test compound, relative to quetiapine, read-out: OL differentiation, 0.4 uM (% Quet)
[16] = test compound at 2 uM, MBP expression relative to quetiapine, NCC library screen, read-out: 2 uM (% Quet)
[17] = test compound at 10 uM, MBP expression relative to quetiapine, NCC library screen, read-out: 10 uM (% Quet)

| Structure (SMILES) | viability at 0.1 µM (expanded OPCs; [7]) | viability at 1 µM (expanded OPCs; [8]) | viability at 10 µM (expanded OPCs; [9]) | activation at 2 µM [1, 10] | activation at 10 µM [1, 11] | viability at 0.1 µM (expanded OPCs; [12]) | viability at 1 µM (expanded OPCs; [13]) | viability at 10 µM (expanded OPCs; [14]) | also measured |
| --- | --- | --- | --- | --- | --- | --- | --- | --- | --- |
| c1ccc2c(c1)CCCC2C1=NCCN1 (stereo not drawn) [Tyzine] |  |  |  |  |  |  |  |  | activation at 2 µM [1, 2]: -6%; activation at 10 µM [1, 3]: 0.3%; 0.1 µM (% DMSO) (expanded OPCs; [4]): 181.2 % DMSO; 1 µM (% DMSO) (expanded OPCs; [5]): 186.3 % DMSO; 10 µM (% DMSO) (expanded OPCs; [6]): 187.5 % DMSO |
| CC(C)C[C@H](NC(=O)[C@@H](O)[C@H](N)Cc1ccccc1)C(=O)O [Ubenimex] | 112% | 112% | 123% |  |  |  |  |  | activation at 2 µM [1, 2]: -3.1%; activation at 10 µM [1, 3]: 9.5% |
| COc1ccccc1N1CCN(CCCNc2cc(=O)n(C)c(=O)n2C)CC1 [Urapidil] |  |  |  | 24.2% | 8.4% | 84.5% | 89.8% | 96.2% |  |
| CC(C)[C@H](N)C(=O)OCCOCn1cnc2c(=O)[nH]c(N)nc21 [Valaciclovir] |  |  |  | -1.4% | -8.7% | 91.4% | 98% | 102% |  |
| Cc1onc(-c2ccccc2)c1-c1ccc(S(N)(=O)=O)cc1 [Valdecoxib] |  |  |  | 8.7% | -33.1% | 109% | 104% | 105% |  |
| CCCC(CCC)C(=O)O [Valproic Acid] | 97.5% | 93.1% | 104% |  |  |  |  |  | activation at 2 µM [1, 2]: -5.2%; activation at 10 µM [1, 3]: -29.7% |
| CCCCC(=O)N(Cc1ccc(-c2ccccc2-c2nnn[nH]2)cc1)[C@H](C(=O)O)C(C)C [Valsartan] | 86.6% | 84% | 82.9% | 10.7% | -1% |  |  |  |  |
| CC(=O)O[C@H]1C[C@@H]2CC[C@@H]3[C@H](CC[C@@]4(C)[C@H]3C[C@H]([N+]3(C)CCCCC3)[C@@H]4OC(C)=O)[C@@]2(C)C[C@@H]1N1CCCCC1 [Vecuronium Bromide] | 86.3% | 87.7% | 78.4% |  |  |  |  |  | activation at 2 µM [1, 2]: 13.2%; activation at 10 µM [1, 3]: 17.7% |
| COc1ccc(C(CN(C)C)C2(O)CCCCC2)cc1 (stereo not drawn) [Venlafaxine] |  |  |  | 4% | -26% | 89.1% | 85.2% | 76.7% |  |
| Nc1ncnc2c1ncn2[C@@H]1O[C@H](CO)[C@@H](O)[C@@H]1O [Vidarabine] | 90.6% | 84.9% | 48.9% |  |  |  |  |  | activation at 0.4 µM ([1]; test compound at 0.4 uM, NCC library screen, relative to quetiapine, read-out: 0.4 uM (% Quet)): -2.3%; activation at 2 µM [1, 2]: -12.9% |
| CC[C@]1(O)C[C@@H]2CN(CCc3c([nH]c4ccccc34)[C@@](C(=O)OC)(c3cc4c(cc3OC)N(C)[C@H]3[C@@](O)(C(N)=O)[C@H](O)[C@]5(CC)C=CCN6CC[C@]43[C@@H]65)C2)C1 [Vindesine] |  | 11.4% | 9.2% |  |  |  |  |  | activation at 0.08 µM ([1]; test compound at 0.08 uM, NCC library screen, relative to quetiapine, read-out: 0.08 uM (% Quet)): -193% |
| CCC1=C[C@@H]2CN(C1)Cc1c([nH]c3ccccc13)[C@@](C(=O)OC)(c1cc3c(cc1OC)N(C)[C@H]1[C@@](O)(C(=O)OC)[C@H](OC(C)=O)[C@]4(CC)C=CCN5CC[C@]31[C@@H]54)C2 [Vinorelbine] | 56.8% | 34.4% | 11.1% |  |  |  |  |  | activation at 0.08 µM ([1]; 0.08 uM test compound, relative to quetiapine, read-out: OL differentiation, 0.08 uM (% Quet)): -20.7%; activation at 0.4 µM [1, 15]: -107% |
| Cl.Cl.O=C(O)COCCN1CCN(C(c2ccccc2)c2ccc(Cl)cc2)CC1 (stereo not drawn) [Virlix] |  |  |  |  |  |  |  |  | 2 uM (% Quet) ([1]; test compound at 2 uM, MBP expression relative to quetiapine, NCC library screen): 3.4 % Quet; 10 uM (% Quet) ([1]; test compound at 10 uM, MBP expression relative to quetiapine, NCC library screen): -0.36 % Quet; 0.1 µM (% DMSO) (expanded OPCs): 98.3 % DMSO; 1 µM (% DMSO) (expanded OPCs): 92.7 % DMSO; 10 µM (% DMSO) (expanded OPCs): 81.0 % DMSO |
| C[C@@H](c1ncncc1F)[C@](O)(Cn1cncn1)c1ccc(F)cc1F [Voriconazole] |  |  |  | 4.8% | 10% | 99.1% | 97.4% | 96% |  |
| CC(=O)CC(c1ccccc1)c1c(O)c2ccccc2oc1=O (stereo not drawn) [Warfarin] |  |  |  |  |  |  |  |  | activation at 2 µM [1, 2]: -4.3%; activation at 10 µM [1, 3]: -2%; 0.1 µM (% DMSO) (expanded OPCs; [4]): 92.9 % DMSO; 1 µM (% DMSO) (expanded OPCs; [5]): 93.8 % DMSO; 10 µM (% DMSO) (expanded OPCs; [6]): 96.2 % DMSO |
| COc1cc(N)c(Cl)cc1C(=O)NC1CN2CCC1CC2 (stereo not drawn) [Zacopride] |  |  |  | 6.8% | 13% | 87% | 88.6% | 91.9% |  |

| Structure (SMILES) | viability at 0.1 µM (expanded OPCs; [7]) | viability at 1 µM (expanded OPCs; [8]) | viability at 10 µM (expanded OPCs; [9]) | activation at 2 µM [1, 10] | activation at 10 µM [1, 11] | viability at 0.1 µM (expanded OPCs; [12]) | viability at 1 µM (expanded OPCs; [13]) | viability at 10 µM (expanded OPCs; [14]) | also measured |
| --- | --- | --- | --- | --- | --- | --- | --- | --- | --- |
| COc1cc(C(=O)NS(=O)(=O)c2ccccc2C)ccc1Cc1cn(C)c2ccc(NC(=O)OC3CCCC3)cc12 [Zafirlukast] | 94.9% | 78.7% | 41.9% | -96.7% |  |  |  |  | activation at 0.4 µM [1, 15]: -24.7% |
| Nc1ccn([C@H]2CC[C@@H](CO)O2)c(=O)n1 [Zalcitabine] | 95.4% | 86.4% | 79.3% | -5.5% | -96.7% |  |  |  |  |
| CCN(C(C)=O)c1cccc(-c2ccnc3c(C#N)cnn23)c1 [Zaleplon] | 87.8% | 86.8% | 86.1% |  |  |  |  |  | activation at 2 µM [1, 2]: 12.3%; activation at 10 µM [1, 3]: -15.8% |
| COc1cc(-c2ccc(=O)[nH]n2)ccc1OC(F)F [Zardaverine] |  |  |  | 4.1% | -36.7% | 86.5% | 93.5% | 67.4% |  |
| C[C@H]1CCC[C@H](O)CCCCCc2cc(O)cc(O)c2C(=O)O1 [Zeranol] |  |  |  | -37.2% | -51.9% | 83.6% | 85.8% | 69.3% |  |
| Cc1cn([C@H]2C[C@H](N=[N+]=[N-])[C@@H](CO)O2)c(=O)[nH]c1=O [Zidovudine] |  |  |  |  |  |  |  |  | activation at 2 µM [1, 16]: -29.4%; activation at 10 µM [1, 17]: -41.2%; 0.1 µM (% DMSO) (expanded OPCs; [4]): 89.6 % DMSO; 1 µM (% DMSO) (expanded OPCs; [5]): 85.7 % DMSO; 10 µM (% DMSO) (expanded OPCs; [6]): 83.9 % DMSO |
| CC(c1cc2ccccc2s1)N(O)C(N)=O (stereo not drawn) [Zileuton] |  |  |  | -2.6% | -52.1% | 104% | 89.4% | 77.4% |  |
| CN(C)CCc1c[nH]c2ccc(C[C@H]3COC(=O)N3)cc12 [Zolmitriptan] | 85.9% | 89.9% | 95.5% |  |  |  |  |  | activation at 2 µM [1, 2]: 4.1%; activation at 10 µM [1, 3]: 4.7% |
| Cc1ccc(-c2nc3ccc(C)cn3c2CC(=O)N(C)C)cc1 [Zolpidem] |  |  |  | -14% | -2.7% | 86.9% | 90.8% | 93.5% |  |
| NS(=O)(=O)Cc1noc2ccccc12 [Zonisamide] |  |  |  |  |  |  |  |  | activation at 2 µM [1, 16]: 5.9%; activation at 10 µM [1, 17]: 4.3%; 0.1 µM (% DMSO) (expanded OPCs; [4]): 89.3 % DMSO; 1 µM (% DMSO) (expanded OPCs; [5]): 92.8 % DMSO; 10 µM (% DMSO) (expanded OPCs; [6]): 87.8 % DMSO |
| COc1cc(CNC(=O)CCCC/C=C\C(C)C)ccc1O [Zucapsaicin] |  |  |  | -17% |  | 85.6% | 72% | 36.9% | activation at 0.4 µM [1, 15]: 13.2% |
| N#Cc1ccc(C(c2ccc(C#N)cc2)n2cncn2)cc1 [letrozole] |  |  |  | 1.2% | -4.8% | 92% | 99.2% | 101% |  |
| CC(=O)NC[C@H]1CN(c2ccc(N3CCOCC3)c(F)c2)C(=O)O1 [linezolid] | 95.7% | 94.1% | 94.7% | 4.3% | 7.1% |  |  |  |  |
| CC(Oc1c(Cl)cccc1Cl)C1=NCCN1 (stereo not drawn) [lofexidine] | 88.5% | 96% | 80.6% |  |  |  |  |  | activation at 2 µM [1, 2]: 9.5%; activation at 10 µM [1, 3]: 13.1% |
| CC(C(=O)O)c1ccc(CC2CCCC2=O)cc1 (stereo not drawn) [loxoprofen] | 99.8% | 92.5% | 87.6% | 3.1% | 10.9% |  |  |  |  |
